Settings: rat, in vivo, iv, 10 mg/kg
Description: The delivery vehicle for drug administration was isotonic saline. Rat blood was collected from the catheter into K2-EDTA tubes […] at time points of 1, minute, 5 minutes, 15 minutes, 1 hour, 4 hours, 8 hours and 24 hours. Plasma was isolated by centrifugation at 1000 RPM for 5 minutes, and 150 uL of extraction solution (ice cold methanol/100 ng/mL daunorubicin internal standard) was added to 50 uL of each plasma sample. Samples were then vortexed for 10 minutes, centrifuged at 13,000 RPM for 10 minutes, and 150 uL of the supernatant is transferred to HPLC vials for analysis. […] A 5 μL sample injection was made onto a Waters 4 μm Nova Pak C18 (3.9×150 mm) at 30° C. with a flow rate of 0.750 mL per minute of 10 mM phosphate buffer (pH=1.4), methanol and acetonitrile (gradient from 70/10/20 to 40/10/50 for buffer/methanol/acetonitrile was made over eight minutes).

- AUC (area under the concentration versus time curve, exposure of daunorubicin to the plasma compartment): 1300 ng·h/mL
- Half-life (terminal, elimination): 3.3 h
Structure (SMILES): COc1cccc2c1C(=O)c1c(O)c3c(c(O)c1C2=O)C[C@@](O)(C(C)=O)C[C@@H]3O[C@H]1C[C@H](N)[C@H](O)[C@H](C)O1 [Free Daunorubicin, daunorubicin]

— patent US20140271885A1, “COPOLYMERS FOR STABLE MICELLE FORMULATIONS” (Intezyne Technologies, Inc., priority 2013, published 2014)
